In test [1] the test system is RS4;11 acute lymphoblastic leukemia (ALL) subcutaneous xenograft. Nature of the test: RS4;11 ALL subcutaneous xenograft model. It is filed as in vivo, NCG mice. The procedure: The RS4;11 cells are of acute lymphoblastic leukemia (ALL) origin and were obtained from American Type Culture Collection (ATCC CRL-1873, Manassas, VA, DC, USA). Cells were grown in RPM 1640 medium (Corning, Cat #10-040-CVR), supplemented with 10% (v/v) fetal bovine serum (Gibco, Cat #10099-141C), and 100 μg/mL of penicillin and streptomycin (Gibco, Cat #15140-122). RS4;11 cells were maintained as suspension cell cultures at 37° C. in a 5% CO2 atmosphere. Five to six-week-old female NCG mice were purchased from Gempharmatech of Information Technology Center. All animals were maintained under specific pathogen free (SPF) “full barrier” condition with free access to food and water. Mice were group-housed under a 12 h light:dark cycle (lights on at 08:00 h), at a temperature of 20-26° C. and 37-62% humidity in IVC cages (Lingyunboji (Beijing) Technology Co., Ltd.). Mice were fed with complete granulated feed with Co60 radiosterilization (Beijing Ke Ao Xie Li Feed Co., Ltd.).
On the day of implantation, RS4;11 cells were harvested and re-suspended with appropriate volume of ice cold DPBS and same volume of Matrigel (Corning, Cat #356237) to give a final concentration of 5×10^7 cells/mL. Re-suspended cells were placed on ice prior to inoculation. The right front flank region of each mouse was cleaned with 75% ethanol prior to cell inoculation. Each animal was injected subcutaneously with 1×10^7 cells in 200 μL of cell suspension in the right front flank via a 26-gauge needle. After implantation, primary tumor volume was measured in two dimensions using a caliper.
Animals were randomly assigned into 10 groups with 10 mice per group according to body weight and tumor volume (100 mm^3-200 mm^3). The groups consisted of vehicle group, 5, 15, 50 mg/kg of venetoclax with QD dosing, 5, 15, 50 mg/kg of Compound 1 with QD dosing, and 2.5, 7.5, 25 mg/kg of Compound 1 with BID dosing. Treatments were administered by oral gavage (p.o.) in a volume of 10 mL/kg body weight. Body weight was assessed immediately before dosing and volume dosed was adjusted accordingly.
(§1) Individual body weight was recorded twice weekly, with mice being monitored daily for clinical signs of toxicity for the duration of the study. Mice were euthanized using carbon dioxide when their tumor volume reached 2,000 mm^3, the tumor was ulcerated, or body weight loss exceeded 20%.
Tumor volume was calculated using the formula: V=0.5×(a×b^2) where a and b are the long and short diameters of the tumor, respectively.

The subject of test [2] is MAVER-1 mantle cell lymphoma (MCL) subcutaneous xenograft. Nature of the test: MAVER-1 MCL subcutaneous xenograft model. It is filed as in vivo, NCG mice. As to the method:
MAVER-1 cells are of mantle cell lymphoma (MCL) origin and were obtained from American Type Culture Collection (ATCC CRL-3008, Manassas, VA, DC, USA). Cells were grown in RPM 1640 medium (Corning, Cat #10-040-CVR), supplemented with 10% (v/v) fetal bovine serum (Gibco, Cat #10099-141C), and 100 μg/mL of penicillin and streptomycin (Gibco, Cat #15140-122). MAVER-1 cells were maintained as suspension cell cultures at 37° C. in a 5% CO2 atmosphere. Five to six-week-old female NCG mice were purchased from Gempharmatech of Information Technology Center. All animals were maintained under specific pathogen free (SPF) “full barrier” condition with free access to food and water. Mice were group-housed under a 12 h light:dark cycle (lights on at 08:00 h), at a temperature of 21-26° C. and 44-61% humidity in IVC cages (Lingyunboji (Beijing) Technology Co., Ltd.). Mice were fed with complete granulated feed with Co60 radiosterilization (Beijing Ke Ao Xie Li Feed Co., Ltd.).
On the day of implantation, MAVER-1 cells were harvested and re-suspended with appropriate volume of ice cold DPBS and same volume of Matrigel (Corning, Cat #356237) to give a final concentration of 1.5×10^7 cells/mL. Re-suspended cells were placed on ice prior to inoculation. The right front flank region of each mouse was cleaned with 75% ethanol prior to cell inoculation. Each animal was injected subcutaneously with 3×10^6 cells in 200 μL of cell suspension in the right front flank via a 26-gauge needle. After implantation, primary tumor volume was measured in two dimensions using a caliper.
Animals were randomly assigned into 7 groups with 10 mice per group according to body weight and tumor volume (100 mm^3-200 mm^3). The groups consisted of vehicle group, 5, 15 mg/kg of venetoclax with QD dosing, 5, 15 mg/kg of Compound 1 with QD dosing, and 2.5, 7.5 mg/kg of Compound 1 with BID dosing. Treatments were administered by oral gavage (p.o.) in a volume of 10 mL/kg body weight. Body weight was assessed immediately before dosing and volume dosed was adjusted accordingly.
as §1
Tumor volume was calculated using the formula: V=0.5×(a×b^2) where a and b are the long and short diameters of the tumor, respectively. Tumor growth inhibition (TGI) was calculated using the following formula: % TGI=100×[1−(treatedt−treatedt0)/(vehiclet−vehiclet0)] (treated t=treated tumor volume at time t, treated t0=treated tumor volume at time 0, vehicle t=vehicle tumor volume at time t and vehicle t0=vehicle tumor volume at time 0)

Where [3] appears, read: same total daily doses of 5 and 15 mg/kg.

With `CC(C)c1ccccc1[C@@H]1CCCN1C1CC2(CCN(c3ccc(C(=O)NS(=O)(=O)c4ccc(NCC5CCC(C)(O)CC5)c([N+](=O)[O-])c4)c(Oc4cnc5[nH]ccc5c4)c3)CC2)C1` (stereo partly drawn) [Compound 1, 2-((1H-pyrrolo[2,3-b]pyridin-5-yl)oxy)-N-((4-((((1r,4r)-4-hydroxy-4-methylcyclohexyl)methyl)amino)-3-nitrophenyl)sulfonyl)-4-(2-((S)-2-(2-isopropylphenyl)pyrrolidin-1-yl)-7-azaspiro[3.5]nonan-7-yl)benzamide], the “Mean Tumor volume (Day 42) (mm^3 ± SEM)” value in test [1] (2.5 mg/kg BID × 42 p.o.) is recorded as 512.5 ± 115.9 mm^3; in test [1] (5 mg/kg QD × 42 p.o.) it was 820.9 ± 140.2 mm^3; in test [1] (7.5 mg/kg BID × 42 p.o.) it was 252.8 ± 48.3 mm^3; in test [1] (15 mg/kg QD × 42 p.o.), 312.6 ± 57.9 mm^3; in test [1] (25 mg/kg BID × 42 p.o.), 136.6 ± 2.2 mm^3; in test [1] (50 mg/kg QD × 42 p.o.) it was 141.8 ± 5.1 mm^3. Moreover, the “tumor growth inhibition (in words)” value in test [1] (oral administration at well tolerated doses) is “potently and dose-dependently inhibited tumor growth”. Further, the “efficacy compared with venetoclax” value in test [1] (setting [3]) is given as “significantly better efficacy when compared with venetoclax”. Further, the “Mean Tumor volume (Day 14) (mm^3 ± SEM)” value stood at 511.5 ± 49.9 mm^3 in test [2] (2.5 mg/kg BID × 17 p.o.), 383.5 ± 29.6 mm^3 in test [2] (5 mg/kg QD × 17 p.o.), 136.2 ± 2.6 mm^3 in test [2] (7.5 mg/kg BID × 17 p.o.) and 140.5 ± 5.3 mm^3 in test [2] (15 mg/kg QD × 17 p.o.). In addition, the “TGI (Day 14)” value is 77% in test [2] (2.5 mg/kg BID × 17 p.o.), 86% in test [2] (5 mg/kg QD × 17 p.o.), 103% in test [2] (7.5 mg/kg BID × 17 p.o.) and 103% in test [2] (15 mg/kg QD × 17 p.o.). The “tumor growth suppression (in words)” value in test [2] (mouse, in vivo) is on record as “potently suppressed tumor growth in a dose-dependent manner”. Further, the “anti-tumor activity relative to venetoclax” value in test [2] (setting [3]) is on record as “showed more anti-tumor activities relative to venetoclax”.
With `CC1(C)CCC(CN2CCN(c3ccc(C(=O)NS(=O)(=O)c4ccc(NCC5CCOCC5)c([N+](=O)[O-])c4)c(Oc4cnc5[nH]ccc5c4)c3)CC2)=C(c2ccc(Cl)cc2)C1` [Venetoclax, reference compound], the results for the “Mean Tumor volume (Day 42) (mm^3 ± SEM)” value in test [1] (5 mg/kg QD × 35 p.o.), in test [1] (15 mg/kg QD × 42 p.o.) and in test [1] (50 mg/kg QD × 42 p.o.) were above 2000 mm^3, 1070.6 ± 181.1 mm^3 and 288.4 ± 37.8 mm^3, respectively. Also, the “Mean Tumor volume (Day 14) (mm^3 ± SEM)” value in test [2] (5 mg/kg QD × 17 p.o.) amounted to 1082.1 ± 109.4 mm^3; in test [2] (15 mg/kg QD × 17 p.o.) it was 315.4 ± 23.1 mm^3. Moreover, the “TGI (Day 14)” value in test [2] (5 mg/kg QD × 17 p.o.) was 38%; in test [2] (15 mg/kg QD × 17 p.o.), 91%.
